Data set [1] in a line: Substrate stability over incubation in sodium formate buffer. Format: physicochemical. The conditions noted are these: 24 hour incubation at 37° C. in sodium formate buffer; read-out: recovery of the substrates (stability).
Data set [2] concerns the target T1, HexA (Homo sapiens, UniProt P06865).
T1 construct: using endogenous enzymes from healthy adult dried blood spots; from tissue; host or cells: dried blood spots from healthy adults/individuals (3.2 mm punches)
T1 sequence (P06865 89-529): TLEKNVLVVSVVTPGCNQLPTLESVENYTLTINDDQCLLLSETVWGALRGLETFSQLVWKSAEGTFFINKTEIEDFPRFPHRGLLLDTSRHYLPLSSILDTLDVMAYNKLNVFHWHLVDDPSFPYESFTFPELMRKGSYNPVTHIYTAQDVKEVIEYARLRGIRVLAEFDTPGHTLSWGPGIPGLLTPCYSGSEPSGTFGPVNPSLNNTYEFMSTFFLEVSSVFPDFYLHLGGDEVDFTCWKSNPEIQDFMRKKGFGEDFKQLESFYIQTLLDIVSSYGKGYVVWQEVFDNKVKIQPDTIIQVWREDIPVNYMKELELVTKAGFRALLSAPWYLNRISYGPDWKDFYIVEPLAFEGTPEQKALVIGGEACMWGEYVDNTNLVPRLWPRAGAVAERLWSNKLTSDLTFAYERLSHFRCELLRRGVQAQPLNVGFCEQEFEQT
T1 sequence (P07686 122-556 partner): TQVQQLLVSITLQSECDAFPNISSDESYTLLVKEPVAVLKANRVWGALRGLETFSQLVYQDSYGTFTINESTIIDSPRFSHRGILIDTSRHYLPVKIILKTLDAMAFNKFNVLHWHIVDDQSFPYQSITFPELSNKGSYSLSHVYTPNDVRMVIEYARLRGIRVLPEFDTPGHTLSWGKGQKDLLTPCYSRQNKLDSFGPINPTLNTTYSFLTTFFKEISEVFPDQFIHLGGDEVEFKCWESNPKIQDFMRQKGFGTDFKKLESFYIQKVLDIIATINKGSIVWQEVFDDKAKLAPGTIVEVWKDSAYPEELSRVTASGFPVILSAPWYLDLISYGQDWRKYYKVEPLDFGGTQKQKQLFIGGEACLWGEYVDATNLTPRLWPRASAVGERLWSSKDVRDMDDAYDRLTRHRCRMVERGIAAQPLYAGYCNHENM
The data set is described as follows: Competitive inhibition: HexA activity with the HexA substrate in presence and absence of the HexA/B substrate, dried blood spots from healthy individuals. The format is biochemical. As to conditions: HexA substrate in presence vs absence of HexA/B substrate. On the procedure:
The HexA/B substrate binds to both HexA and HexB, whereas the HexA substrate binds to only the HexA; thus, the HexA/B substrate may theoretically block the action of HexA on the HexA substrate by competitive binding (i.e. competitive inhibition). An experiment was done to test this theory where HexA enzymatic activity was measured in dried blood spots from healthy individuals using the HexA substrate in the presence and absence of the HexA/B substrate.

The next data set relates to HexA/B. The data set is described as follows: Enzyme kinetics of HexA/B with the HexA/B substrate, endogenous enzymes from healthy adult dried blood spots, LC-MS/MS detection. Format: biochemical. As to conditions: read-out: Michaelis-Menten constant (Km). How it is done:
3.2 mm punches were taken from dried blood samples. The punches were added into a well of a multiwell plate and in particular, a 1.0 mL deep-well 96-well plate. Following, 30 μL of the duplex assay cocktail described above was added to each well. The plate was sealed with a silicone sealing mat and shaken at 250 rpm for 4 hours at 37° C. in an orbital shaker incubator. After incubation, the enzymatic reaction was quenched by adding 100 μL of methanol: ethyl acetate (1:1) and mixed by pipetting up and down ˜10 times. Analytes were extracted by adding sodium chloride solution (0.5 M, 200 μL) and ethyl acetate (400 μL) to each well and mixed by pipetting up and down ˜10 times. […]
(§1) Analytes were detected via a WATERS™ Xevo TQ triple-quadrupole mass spectrometer. […] The following MRM traces were monitored for quantitation: HexA enzymatic reaction product (456.5>356.1), HexA/B enzymatic reaction product (461.5>361.2), and internal standard (465.5>357.1). […]
Enzyme kinetics of HexA and HexA/B were measured in relationship to the HexA substrate and HexA/B substrate, respectively, using endogenous enzymes from healthy adult dried blood spots. […]
The reaction rate for each substrate at different substrate concentrations was measured and the relationship found to be hyperbolic.

In data set [3] the target is T1, HexA. The experiment in a line: Analytical range of duplex assay, HexA activity. Format: biochemical. The conditions noted are these: dried blood spots. On the procedure: 3.2 mm punches were taken from dried blood samples. The punches were added into a well of a multiwell plate and in particular, a 1.0 mL deep-well 96-well plate. Following, 30 μL of the duplex assay cocktail described above was added to each well. The plate was sealed with a silicone sealing mat and shaken at 250 rpm for 4 hours at 37° C. in an orbital shaker incubator. After incubation, the enzymatic reaction was quenched by adding 100 μL of methanol: ethyl acetate (1:1) and mixed by pipetting up and down ˜10 times. Analytes were extracted by adding sodium chloride solution (0.5 M, 200 μL) and ethyl acetate (400 μL) to each well and mixed by pipetting up and down ˜10 times. The plate was centrifuged at 3000×g for 5 min at ambient temperature, then 200 μL of the upper ethyl acetate layer was transferred to a 96-well microplate. […]
as §1
The analytical range, as calculated by dividing the enzymatic activity in healthy individual samples over the enzymatic activity in a blank, was determined to be 82 for the HexA substrate and 3,400 for the HexA/B substrate.

A value given as a limit tells only on which side of the number the result lay.

With `[2H]c1c([2H])c([2H])c(C(=O)NCCCCN(CCC(=O)Nc2ccc(OC3OC(CO)C(O)C(O)C3NC(C)=O)cc2)C(=O)OC(C)(C)C)c([2H])c1[2H]` (centres unmarked) [HexA/B substrate], the recovery at 24 h in data set [1] was more than 100%. In addition, the “competitive inhibition of HexA enzymatic activity on the HexA substrate” value at HexA [2] is “no competitive inhibition”. In addition, the Km in the data set with HexA/B is 3.06 mM.
Regarding `CC(=O)NC1C(Oc2ccc(NC(=O)CCN(CCCCNC(=O)c3ccccc3)C(=O)OC(C)(C)C)cc2)OC(COS(=O)(=O)O)C(O)C1O` (centres unmarked) [HexA substrate], the recovery at 24 h in data set [1] was more than 100%. In addition, the “analytical range (enzymatic activity in healthy individual samples over enzymatic activity in a blank)” value on HexA [3] was determined as 82.

One may read the Km as the concentration of substrate that gives half-maximal velocity.

Source of the values: US20250250608A1, “METHODS AND COMPOSITIONS FOR ASSAYING BETA-HEXOSAMINIDASE ENZYMATIC ACTIVITY VIA MASS SPECTROMETRY” (GelbChem, LLC, priority 2024, published 2025).
